Laboratory results published in publication PMC7383625, “Sequence‐Based Prediction of Promiscuous Acyltransferase Activity in Hydrolases” (Angewandte Chemie (International Ed. in English), 2020).

Tests used:
Type in all cases: biochemical
3ZWQ = molecular target: T1, 3ZWQ (Pyrobaculum calidifontis, UniProt A3MVR4); test: colorimetric pNPA acyltransferase assay, pNP release at […] nm; conditions: acyl donor; benzyl alcohol or 2-phenylethanol as acyl acceptor
T1 construct: gene Pcal_1307; named only by PDB code; construct in supplement
T1 sequence (A3MVR4 1-313): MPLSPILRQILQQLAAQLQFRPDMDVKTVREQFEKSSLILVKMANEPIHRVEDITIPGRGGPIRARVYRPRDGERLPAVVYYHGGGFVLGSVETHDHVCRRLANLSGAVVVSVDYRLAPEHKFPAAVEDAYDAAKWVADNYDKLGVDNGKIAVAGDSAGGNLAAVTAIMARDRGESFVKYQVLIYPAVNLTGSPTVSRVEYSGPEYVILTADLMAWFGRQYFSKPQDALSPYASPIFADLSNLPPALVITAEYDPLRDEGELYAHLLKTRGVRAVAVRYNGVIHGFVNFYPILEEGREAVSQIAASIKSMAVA

3FAK = molecular target: T2, 3FAK (uncultured bacterium, UniProt Q0GMU2); test: as above; conditions: acyl donor; benzyl alcohol or 2-phenylethanol as acyl acceptor
T2 construct: named only by PDB code; construct in supplement
T2 sequence (Q0GMU2 with tags, fused parts or gaps): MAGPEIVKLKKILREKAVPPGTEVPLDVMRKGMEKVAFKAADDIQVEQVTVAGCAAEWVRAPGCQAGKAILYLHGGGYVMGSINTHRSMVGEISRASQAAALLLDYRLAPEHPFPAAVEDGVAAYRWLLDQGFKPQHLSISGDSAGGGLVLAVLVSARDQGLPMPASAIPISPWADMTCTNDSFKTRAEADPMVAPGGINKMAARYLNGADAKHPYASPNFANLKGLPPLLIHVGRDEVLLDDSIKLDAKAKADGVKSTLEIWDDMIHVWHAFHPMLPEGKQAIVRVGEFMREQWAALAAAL

4XVC = molecular target: T3, 4XVC (uncultured bacterium, UniProt Z9PJA9OM60); test: as above; conditions: acyl donor; benzyl alcohol or 2-phenylethanol as acyl acceptor
T3 construct: named only by PDB code; construct in supplement
T3 sequence (Z9PJA9OM60 21-317): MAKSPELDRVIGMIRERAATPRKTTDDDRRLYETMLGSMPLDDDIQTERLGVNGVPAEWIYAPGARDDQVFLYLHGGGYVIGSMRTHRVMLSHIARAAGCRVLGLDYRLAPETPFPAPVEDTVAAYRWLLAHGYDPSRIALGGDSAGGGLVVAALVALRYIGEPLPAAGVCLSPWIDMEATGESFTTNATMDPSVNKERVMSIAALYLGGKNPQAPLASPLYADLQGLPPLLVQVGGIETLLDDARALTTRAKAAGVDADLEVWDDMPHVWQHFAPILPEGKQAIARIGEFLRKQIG

Est8 [1] = molecular target: T4, Est8 (uncultured bacterium, UniProt Z9EH37ATT5); test: as above; conditions: acyl donor; benzyl alcohol or 2-phenylethanol as acyl acceptor
T4 construct: bHSL esterase with N-terminal cap domain; crystal structure solved here
T4 sequence (Z9EH37ATT5 1-297): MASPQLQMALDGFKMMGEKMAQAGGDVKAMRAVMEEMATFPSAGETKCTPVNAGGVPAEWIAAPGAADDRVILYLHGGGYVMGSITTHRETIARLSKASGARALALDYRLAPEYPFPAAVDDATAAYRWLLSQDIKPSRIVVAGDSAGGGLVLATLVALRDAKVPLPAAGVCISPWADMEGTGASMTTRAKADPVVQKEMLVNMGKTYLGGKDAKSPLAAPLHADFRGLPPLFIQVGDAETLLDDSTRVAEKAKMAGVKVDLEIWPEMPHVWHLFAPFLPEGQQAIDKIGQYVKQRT

3K6K = molecular target: T5, 3K6K (uncultured bacterium, UniProt Z9ICY0V5A2); test: as above; conditions: acyl donor; benzyl alcohol or 2-phenylethanol as acyl acceptor
T5 construct: named only by PDB code; construct in supplement
T5 sequence (Z9ICY0V5A2 15-328): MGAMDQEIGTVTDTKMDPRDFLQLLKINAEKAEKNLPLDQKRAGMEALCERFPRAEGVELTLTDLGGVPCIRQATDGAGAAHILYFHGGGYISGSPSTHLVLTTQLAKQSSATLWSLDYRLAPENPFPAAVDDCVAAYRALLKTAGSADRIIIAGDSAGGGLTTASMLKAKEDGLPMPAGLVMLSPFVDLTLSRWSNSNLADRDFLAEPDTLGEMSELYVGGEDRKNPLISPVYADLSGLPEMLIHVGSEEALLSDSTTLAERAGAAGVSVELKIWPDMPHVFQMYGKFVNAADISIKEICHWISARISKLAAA

Est8 [2] = molecular target: T4, Est8; test: GC of 2-phenylethyl acetate formation; conditions: acyl acceptor, 20 mM; vinyl acetate 200 mM as acyl donor; 200 mM buffer at pH optimum

Compound	colorimetric pNPA acyltransferase assay, pNP release at 405 nm (3ZWQ)	colorimetric pNPA acyltransferase assay, pNP release at 405 nm (3FAK)	colorimetric pNPA acyltransferase assay, pNP release at 405 nm (4XVC)	colorimetric pNPA acyltransferase assay, pNP release at 405 nm (Est8 [1])	colorimetric pNPA acyltransferase assay, pNP release at 405 nm (3K6K)	GC of 2-phenylethyl acetate formation (Est8 [2])
CC(=O)Oc1ccc([N+](=O)[O-])cc1 [pNPA]	3ZWQ showed three‐fold higher acyltransferase activity with benzyl alcohol, outperforming 1EVQ	reactions were carried out for Est8 and its homologues using both benzyl alcohol	reactions were carried out for Est8 and its homologues using both benzyl alcohol	reactions were carried out for Est8 and its homologues using both benzyl alcohol	reactions were carried out for Est8 and its homologues using both benzyl alcohol	
OCCc1ccccc1 [2-phenylethanol]						For Est8, product hydrolysis became more dominant than acyl transfer quickly
